Experimental data from patent US9328078B2, “Benzofurazan anti-amyloid compounds and methods” (Treventis Corporation, priority 2012, dated 2016).

Experiments:
Biotin-Aβ(1-42) = target: T1, Biotin-Aβ(1-42) (Homo sapiens, UniProt P05067); experiment: Biotin-Aβ(1-42) oligomeric assay; format: biochemical; details: inhibition of oligomer formation at 25 uM, 30 minutes; higher = more inhibition
T1 construct: Biotin-Aβ(1-42) (AnaSpec) at 0.2 mg/ml in hexafluoroisopropanol (HFIP); purchased AnaSpec
Method: The following assay was adapted from H. LeVine III. Biotin-avidin interaction-based screening assay for Alzheimer's β-peptide oligomer inhibitors, Anal. Biochem. 356 (2006) 265-272 and A. Frey, B. Meckelein, D. Externest, M. A. Schmidt A stable and highly sensitive 3,3′,5,5′-tetramethylbenzidine-based substrate reagent for enzyme-linked immunosorbent assays, J. Immunol. Methods 233 (2000) 47-56.
Biotin-Aβ(1-42) (AnaSpec) at 0.2 mg/ml in hexafluoroisopropanol (HFIP) was further diluted in 20 volumes of HFIP, which was then evaporated under a stream of argon. 20 volumes of trifluoroacetic acid was added and let rest for 10 minutes, then evaporated under a stream of argon. Another 20 volumes of HFIP was added and evaporated under a stream of argon. Biotin-Aβ(1-42) was brought to a final concentration of 2.3 mg/ml in DMSO. Oligomer formation was initiated in 96 well round bottom polypropylene plates by diluting the prepared biotin-Aβ(1-42) 50× in 20 mM sodium phosphate pH 7.5, 150 mM NaCl in the presence of vehicle or compound. Oligomer formation was halted after 30 minutes by the addition of 50 μl/well of 0.3% Tween-20.
96 well Costar high-binding microplates were coated overnight at +4° C. with 50 μl/well of 1 ug/ml NeutrAvidin (ThermoScientific) in 10 mM sodium phosphate, pH 7.5. Plates were blocked for 2 hours at room temperature with 200 μl/well 20 mM sodium phosphate pH 7.5, 150 mM NaCl, 0.1% Tween-20. The oligomer preparation was transferred at 50 μl/well to the blocked plate and incubated for 2 hours at room temperature with shaking at 150 rpm. The plate was then washed three times with 200 μl/well 20 mM tris-HCl pH 7.5, 34 mM NaCl, 0.1% Tween-20 (TBS-T). Streptavidin-HRP (Rockland Immunochemicals) [1:20,000] in 20 mM sodium phosphate pH 7.5, 150 mM NaCl, 0.1% Tween-20 was added at 50 μl/well and incubated in the dark at room temperature for 1 hour with shaking at 150 rpm. The plate was washed three times with 200 μl/well of TBS-T. Tetramethylbenzidine/H2O2 substrate was prepared by mixing 250 μl of 41 mM 3,3′,5,5′-tetramethylbenzidine, 8.2 mM tetrabutylammonium borohydride in dimethylacetamide with 10 ml of 205 mM K3 citrate pH 4.0, 3.075 mM H2O2 and incubating for 15 minutes at room temperature. Prepared substrate solution was added at 100 μl/well and the reaction was allowed to proceed for 15 minutes, after which it was terminated by the addition of 100 μl/well of 1% H2SO4. The OD450nm was determined using a Tecan Infinite F200 plate reader.

Aβ40 = Aβ40 (Homo sapiens, UniProt P05067); experiment: kinetic ThT assay for Aβ aggregation; format: biochemical; details: for inhibition at 5 µM: 80 h, compound 5 μm, read-out: % inhib Aβ 40 (5 μm); for inhibition at 10 µM: compound 10 μM, read-out: % inhib Aβ 40 10 μM
Method: Aβ40 (1.0 mg) was pre-treated in a 1.5 mL microfuge tube with HFIP (1 mL) and sonicated for 20 min to disassemble any pre-formed Aβ aggregates. The HFIP was removed with a stream of argon and the Aβ dissolved in Tris base (5.8 mL, 20 mM, pH˜10). The pH was adjusted to 7.4 with concentrated HCl (˜10 μL) and the solution filtered using a syringe filter (0.2 μm) before being used.
The kinetic ThT assay for AP aggregation is similar to that of Chalifour et al (Chalifour et al, 2003, J. Biol. Chem. 278:34874-81). Briefly, pre-treated Aβ40 or Aβ42 (40 μM in 20 mM Tris, pH 7.4) was diluted with an equal volume of 8 μM Thioflavin T (ThT) in Tris (20 mM, pH 7.4, 300 mM NaCl). Aliquots of Aβ/ThT (200 μL) were added to wells of a black polystyrene 96-well plate, followed by 2 μL of a compound in DMSO (variable concentration), or DMSO alone (controls). Incubations were performed in triplicate and were taken to contain 20 μM Aβ, various concentration of compound in 20 mM Tris, pH 7.4, 150 mM NaCl, 1% DMSO. Plates were covered with clear polystyrene lids and incubated at 37° C. in a Tecan Genios microplate reader.
Fluorescence readings (λex=450 nm, λem=480 nm) were taken every 15 min., after first shaking at high intensity for 15 s and allowing to settle for 10 s before each reading. Active compounds attenuated the increase in fluorescence over time that occurred in controls. In FIGS. 1-7, the time this procedure was performed extended to 80 hours (rightmost part of X-axis), at which point fluorescence increase generally reached an asymptote. Applying a definition of DMSO control at 80 hr as 100% aggregation (0% inhibition) and DMSO control at 0 hr as 0% aggregation (100% inhibition), a % inhibition score where higher is better can be calculated for a given concentration of compound. By repeating this procedure over several concentrations, a […] (IC50) can be measured, as is given in the table below for some compounds.
Data is summarized in the table below; numbers given in parenthesis are the values in that particular experiment for compound ID 1027, given as the first entry in this table for comparison.

[1] = DMSO control at 80 hr = 0% inhibition, parenthesis = compound 1027

T1 sequence (P05067 672-713 limits assumed): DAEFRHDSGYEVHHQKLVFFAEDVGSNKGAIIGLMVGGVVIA
Chain of Aβ40 (P05067 672-711 limits assumed, species assumed): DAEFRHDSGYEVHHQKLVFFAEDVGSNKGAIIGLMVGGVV

inhibition at 25 µM (Biotin-Aβ(1-42)) [%] | inhibition at 5 µM (Aβ40; [1]) [%] | IC50 (Aβ40; ThT fluorescence, 20 μM Aβ, 37° C., up to 80 hr, parenthesis = compound 1027 in same experiment, read-out: IC50 A β 1-40) [µM] | inhibition at 10 µM (Aβ40; [1]) [%] | inhibition at 20 µM (Aβ40; compound 20 μM, DMSO control at 80 hr = 0% inhibition, parenthesis = compound 1027, read-out: % inhib. A β 40 (20 μM)) [%] | SMILES
75 | 40 | 5.76 | 52 | 78 | OC(c1cccc(-c2cc(N3CCC(N4CCCC4)CC3)c3nonc3c2)c1)C(F)(F)F (stereo not drawn) [TRV-1387]
29 | 52 |  | 66 |  | CC(C)(O)C1CN(c2cc(-c3cccc(C(O)C(F)(F)F)c3)cc3nonc23)C1 (stereo not drawn) [TRV-1435]
-23 | 45 |  | 55 |  | OC1CCN(c2cc(-c3cccc(C(O)C(F)(F)F)c3)cc3nonc23)C1 (stereo not drawn) [TRV-1448]
-3 | 55 |  | 72 |  | CC(C)(O)[C@@H]1CCCN1c1cc(-c2cccc(C(O)C(F)(F)F)c2)cc2nonc12 (stereo partly drawn) [TRV-1449]
32 | 57 |  | 79 |  | OC[C@@H]1CCCN1c1cc(-c2cccc(C(O)C(F)(F)F)c2)cc2nonc12 (stereo partly drawn) [TRV-1450]
4 | 54 |  | 73 |  | CC(O)C1CN(c2cc(-c3cccc(C(O)C(F)(F)F)c3)cc3nonc23)C1 (stereo not drawn) [TRV-1451]
76 | 50 |  | 63 |  | OC(c1cccc(-c2cc(N3CCC[C@H]3CN3CCCC3)c3nonc3c2)c1)C(F)(F)F (stereo partly drawn) [TRV-1452]
29 | 41 |  | 60 |  | OC(c1cccc(-c2cc(N3CC(CN4CCOCC4)C3)c3nonc3c2)c1)C(F)(F)F (stereo not drawn) [TRV-1455]
3 | 36 |  | 64 |  | OC(c1cccc(-c2cc(N3CC(N4CCCC4)C3)c3nonc3c2)c1)C(F)(F)F (stereo not drawn) [TRV-1456]
82 | 51 |  | 65 |  | OC(c1cccc(-c2cc(N3CC(CN4CCCC4)C3)c3nonc3c2)c1)C(F)(F)F (stereo not drawn) [TRV-1457]
-32 | 47 |  | 62 |  | CN(Cc1nccs1)c1cc(-c2cccc(C(O)C(F)(F)F)c2)cc2nonc12 (stereo not drawn) [TRV-1459]
10 | 36 |  | 44 |  | CN(Cc1ccc(F)cc1)c1cc(-c2cccc(C(=O)N3CCCC3)c2)cc2nonc12 [TRV-1460]
-28 | 58.9 |  | 71.7 |  | COC(C)C1CN(c2cc(-c3cccc(C(O)C(F)(F)F)c3)cc3nonc23)C1 (stereo not drawn) [TRV-1461]
23 | 53 |  | 48 |  | OC(c1cccc(-c2cc(N3CC(N4CCOCC4)C3)c3nonc3c2)c1)C(F)(F)F (stereo not drawn) [TRV-1462]
69 |  |  |  |  | CN(C)CCCN(C)c1cc(-c2cccc(C(O)C(F)(F)F)c2)cc2nonc12 (stereo not drawn) [TRV-1465]
72 | 36.9 |  | 49 |  | CN(C)C1CCN(c2cc(-c3cccc(C(O)C(F)(F)F)c3)cc3nonc23)CC1 (stereo not drawn) [TRV-1466]
